Laboratory results taken from US20250327028A1, “ENGINEERED PLATELETS AS TARGETED PROTEIN DEGRADERS” (Wisconsin Alumni Research Foundation, priority 2024, published 2025).

Tests used:
[1] = tested on: HSP90; test: Streptavidin-bead immunoprecipitation of biotin-labeled HSP90 in platelets treated with HAC-B; format: cell-based, BALB/c mice
Procedure: The immunoprecipitation assays based on the streptavidin-biotin system were used to evaluate the engineering efficiency of HAC-B on platelets. The fresh platelets were isolated from the whole blood of BALB/c mice as described above. PBS containing PGE1 ([…]) was adopted to dilute the platelets to a final concentration of 1×10^8 platelets/mL, and a total amount of 2×10^8 platelets (2 mL) was assigned for each sample in one tube. The HAC-B stock solution in DMSO was added to each tube at a final concentration of 2.5, 5, or 10 μM, and then the samples were placed in an orbital shaker with a speed of 50 rpm and incubated for 2 h at room temperature (blank DMSO serve as 0 μM). Meanwhile, other tubes containing the same platelet suspensions were added with HAC-B stock solution at a final concentration of 10 μM, which were shaken at the same conditions for 0.5, 1, 2, 3, or 4 h (the platelet suspension that was centrifugated immediately after HAC-B addition serves as the 0 h group). […] The total proteins in the supernatants were quantified through the BCA assay, and 10 μL of lysate supernatants were saved as the input samples. […]

[2] = target: T1, BRD4 (Mus musculus, UniProt Q9ESU6); test: Immunoblot analysis of BRD4 degradation in 4T1 cells after free HAC treatment; format: cell-based, murine
T1 construct: endogenous in cells; host or cells: 4T1
Description: Immunoblot analysis: Immunoblot analysis was used to evaluate the expression of BRD4, HSP90, HSP90a, and PD-L1 in 4T1, WT MDA-MB-231, HSP90α-KO MDA-MB-231 or PEA-10 cells after various treatments and also served as the detection method for IP or co-IP experiments. The procedures for preparing IP or co-IP samples were indicated in the relevant experimental parts.
Sample preparation for various cancer cells after free HAC treatment: Various cells, including 4T1, WT MDA-MB-231, HSP90α-KO MDA-MB-231, or PEA-10 cells, were seeded in 6-well culture plates with a density of 5×10^4 cells in each well and cultured for 24 h. Then, if HAI pretreatment was performed, the cells were incubated in the HAI-containing blank medium at different concentrations for 2 h and washed with PBS twice before the following treatments. The medium in the corresponding wells was replaced with 1 mL of blank medium containing the DMSO vehicle, HACs, or the combinations of various free ligands at the predetermined concentrations. After incubation for the indicated time points, cells were washed with PBS and lysed on ice with the relevant lysis buffer containing PMSF (1 mM) and the phosphatase inhibitor cocktail for 30 min. As for the conditioned medium (CM), the culturing complete medium of the corresponding cancer cells in each well was collected after 24-h incubation and subjected to centrifugation at 2000 rpm for 5 min to obtain the supernatant. The filtrate of the supernatants was collected following filtration over a 0.45 μm filter, serving as the CM. Regarding the cell samples for BRD4 detection, the lysis buffer containing HEPES-KOH (pH=7.5, 10 mM), NaCl (500 mM), EDTA (5 mM), NP-40 (1%), and SDS (0.1%) was used with the indicated PMSF and phosphatase inhibitor cocktail. As for PD-L1 detection, RIPA buffer (Thermo Fisher Scientific/J63306.AP) was used with the indicated PMSF and phosphatase inhibitor cocktail.
General procedures for immunoblot analysis: After a 30-min lysis, the lysates were centrifuged at 10,000 g for 10 minutes at 4° C., and the corresponding supernatants were collected, followed by quantification of the total proteins in the supernatant through the BCA assay. Afterward, the proteins in the supernatant were mixed with the loading buffer and heated at 95° C. for 15 min. Equal amounts of proteins from different samples ([…]) were loaded into the Bis-Tris gel formulated with Bis-Tis buffer, 30% acrylamide/Bis, 10% ammonium persulfate (APS) solution, and TEMED. The separated proteins were transferred to polyvinylidene fluoride (PVDF) membranes before the membranes were blocked with 5% nonfat milk in PBS-T. Next, the PVDF membranes were incubated with primary antibodies overnight at 4° C., if necessary, followed by the incubation with the goat-anti-rabbit IgG H & L (HRP) secondary antibodies at room temperature for 2 h. Finally, the bands were treated with electrochemiluminescence (ECL) western blot substrate, detected by the iBright™ imaging system and quantified with ImageJ software. 8% Bis-Tris gels were used for BRD4 detection, and 10% gels were adopted to analyze PD-L1.

higher effective concentration that efficiently reduces BRD4 expression ([2]; 4T1 cells, 24 h)	lower effective concentration that efficiently reduces BRD4 expression ([2]; 4T1 cells, 24 h)	time dependence of BRD4 downregulation ([2]; 4T1 cells, at the two effective concentrations)	shape of concentration response of BRD4 degradation ([2]; 4T1 cells, at relatively lower concentrations, reversed at 20 μM)	SMILES	concentration dependence of HSP90 tethering in platelets ([1]; 2 h)	incubation time at which biotin labeling of HSP90 in platelets approaches a maximum ([1]; HAC-B 10 μM)	BRD4 degradation in presence of proteasome inhibitor epoxomicin (Epox) ([2]; 4T1 and WT MDA-MB-231 cells (FIGS. 2K, 2L), lower or higher effective concentrations)
				N#CCN(C(=O)CCCC[C@@H]1SC[C@@H]2NC(=O)N[C@@H]21)S(=O)(=O)c1ccc(C(=O)NCCCn2c(Sc3cc4c(cc3I)OCO4)nc3c(N)ncnc32)cc1 [HAC-B, N-(3-(6-amino-8-((6-iodobenzo[d][1,3]dioxol-5-yl)thio)-9H-purin-9-yl)propyl)-4-(N-(cyanomethyl)-N-(5-((3aS,4S,6aR)-2-oxohexahydro-1H-thieno[3,4-d]imidazol-4-yl)pentanoyl)sulfamoyl)benzamide]	in a concentration-dependent manner	~2 h	
20 µM	0.16 µM	in a time-dependent manner	hook effect	Cc1sc2c(c1C)C(c1ccc(Cl)cc1)=N[C@@H](CC(=O)NCc1cn(CCCC(=O)N(CC#N)S(=O)(=O)c3ccc(C(=O)NCCCn4c(Sc5cc6c(cc5I)OCO6)nc5c(N)ncnc54)cc3)nn1)c1nnc(C)n1-2 [iHAC, (S)—N-(3-(6-amino-8-((6-iodobenzo[d][1,3]dioxol-5-yl)thio)-9H-purin-9-yl)propyl)-4-(N-(4-(4-((2-(4-(4-chlorophenyl)-2,3,9-trimethyl-6H-thieno[3,2-f][1,2,4]triazolo[4,3-a][1,4]diazepin-6-yl)acetamido)methyl)-1H-1,2,3-triazol-1-yl)butanoyl)-N-(cyanomethyl)sulfamoyl)benzamide]			rescue effect induced by proteasome inhibitor epoxomicin (Epox)
